# What was measured:
# Format in all cases: in vivo
# [1] = tested on: Stellaria media, Amaranthus retroflexus, Sinapis avreuse, Avena fatura, Lolium multiflorum and Setaria viridis; test: Pre-emergence action against weeds (greenhouse pot test, visual rating); conditions: application rate of 3.0 kg or less of active substance per hectare, trial period of 3 to 4 weeks
# From the text: Seeds of mono- and dicotyledonous weed plants are placed in sandy loam soil in cardboard pots and covered with soil. The novel compounds, formulated as wettable powders or emulsion concentrates, are then applied to the surface of the soil cover in the form of an aqueous suspension or emulsion at an application rate of from 600 to 800 l of water/ha (converted), in various dosages. After the treatment, the pots are placed in a greenhouse and kept under good growth conditions for the weeds. After the test plants have emerged after a trial period of 3 to 4 weeks, the damage to the plants or the negative effect on emergence is rated visually by comparison with untreated controls. As shown by the test results, the novel compounds have good herbicidal pre-emergence activity against a broad spectrum of weed grasses and broad-leaved weeds.
# [2] = tested on: Stellaria media, Amaranthus retroflexus, Sinapis avreuse, Avena fatura, Lolium multiflorum and Setaria viridis; test: Post-emergence action against weeds (greenhouse pot test, visual rating); conditions: three-leaf stage, application rate of 3.0 kg or less of active substance per hectare, 3 to 4 weeks in greenhouse
# Procedure: Seeds of mono- and dicotyledonous weeds are placed in sandy loam soil in cardboard pots, covered with soil and cultivated in a greenhouse under good growth conditions. Two to three weeks after sowing, the test plants are treated at the three-leaf stage. The novel compounds, formulated as wettable powders or emulsion concentrates, are sprayed in various dosages onto the green parts of the plant at an application rate of from 600 to 8001 of water/ha (converted), and, after the test plants have remained in the greenhouse for 3 to 4 weeks under optimum growth conditions, the action of the preparations is rated visually by comparison with untreated controls. The novel compositions also have good post-emergence herbicidal activity against a broad spectrum of economically important weed grasses and broad-leaved weeds.
# [3] = tested on: Cyperus iria and Echinocloa crus-galli; test: Action on weeds in rice (paddy rice conditions, visual rating); conditions: dammed height of water 2-3 cm, about three weeks after application; further: test concentration or dose not given here
# From the text: Typical rice weeds such as Echinocloa crus galli and Cyperus iria are cultivated in a greenhouse under paddy rice conditions ([…] height of water: 2-3 cm). After the treatment, the test plants are set up in a greenhouse under optimum growth conditions and are maintained in this way under these conditions throughout the test period. About three weeks after application, evaluation is made by visual rating of the damage to the plants by comparison with untreated controls.
Compound,"herbicidal activity pre-emergence (damage to the plants or negative effect on emergence, rated visually) [1]",herbicidal activity post-emergence (rated visually) [2],herbicidal activity against rice weeds (visual rating of damage) [3]
CCC(CCOc1cccc(C)c1)Nc1nc(N)nc(C(C)C)n1 (stereo not shown) [Example 358],good and in most cases very good herbicidal activity,good and in most cases very good herbicidal activity,very good herbicidal activity
CCC(CCOc1cccc(Cl)c1)Nc1nc(N)nc(C(C)C)n1 (stereo not shown) [Example 372],good and in most cases very good herbicidal activity,good and in most cases very good herbicidal activity,very good herbicidal activity
CCC(CCOc1cc(C)cc(C)c1)Nc1nc(N)nc(C(C)C)n1 (stereo not shown) [Example 340],good and in most cases very good herbicidal activity,good and in most cases very good herbicidal activity,very good herbicidal activity
CC(CCOc1ccccc1)Nc1nc(N)nc(C(C)C)n1 (stereo not shown) [Example 336],good and in most cases very good herbicidal activity,good and in most cases very good herbicidal activity,very good herbicidal activity
CCC(CCOc1cccc(F)c1)Nc1nc(N)nc(C(C)(C)F)n1 (stereo not shown) [Example 222],good and in most cases very good herbicidal activity,good and in most cases very good herbicidal activity,very good herbicidal activity
CC(CCOc1cc(F)cc(F)c1)Nc1nc(N)nc(C(C)C)n1 (stereo not shown) [Example 281],good and in most cases very good herbicidal activity,good and in most cases very good herbicidal activity,very good herbicidal activity
CC(CCOc1cccc(F)c1)Nc1nc(N)nc(C(C)(C)F)n1 (stereo not shown) [Example 308],good and in most cases very good herbicidal activity,good and in most cases very good herbicidal activity,very good herbicidal activity
CCC(COC(=O)c1ccccc1OC(C)=O)Nc1nc(N)nc(C(C)C)n1 (stereo not shown) [Example 46],,good and in most cases very good herbicidal activity,very good herbicidal activity
Cc1cccc(OCCC(C)Nc2nc(N)nc(C(C)(C)F)n2)c1 (stereo not shown) [Example 253],good and in most cases very good herbicidal activity,good and in most cases very good herbicidal activity,very good herbicidal activity
CC(CCOc1cccc(F)c1)Nc1nc(N)nc(C(C)C)n1 (stereo not shown) [Example 300],good and in most cases very good herbicidal activity,,very good herbicidal activity
Cc1cccc(COCC(C)Nc2nc(N)nc(C(C)(C)F)n2)c1 (stereo not shown) [Example 120],good and in most cases very good herbicidal activity,,very good herbicidal activity
CCC(CCOc1ccccc1)Nc1nc(N)nc(C(F)(F)C(F)F)n1 (stereo not shown) [Example 394],good and in most cases very good herbicidal activity,,very good herbicidal activity
CC(CCCOc1ccccc1)Nc1nc(N)nc(C(C)C)n1 (stereo not shown) [Example 531],good and in most cases very good herbicidal activity,good and in most cases very good herbicidal activity,
